Reference: article PMC3690532 (Structure (London, England : 1993), 2013)

Target: T1, S. enterica MTAN (SeMTAN) (Salmonella choleraesuis, UniProt Q57T48)
T1 sequence (Q57T48 1-232): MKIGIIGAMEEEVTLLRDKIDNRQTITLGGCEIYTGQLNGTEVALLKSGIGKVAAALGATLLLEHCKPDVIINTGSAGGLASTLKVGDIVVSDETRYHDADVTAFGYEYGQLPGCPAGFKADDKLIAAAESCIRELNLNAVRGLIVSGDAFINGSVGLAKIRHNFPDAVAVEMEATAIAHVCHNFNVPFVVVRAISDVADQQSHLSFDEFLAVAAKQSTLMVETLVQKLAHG
Assay: slow-onset inhibition constant
Format: biochemical
Settings: for ΔG (Gibbs free energy): generated from Ki* using ΔG = RT ln Ki*; for ΔΔG: methylthio-DADMe-ImmA as reference

SMILES	ΔG (Gibbs free energy) [kcal/mol]	ΔΔG [kcal/mol]	ΔG of binding higher when compared to MT-, DiEGT- and BuT-DADMe-ImmA (difference versus the three inhibitors) [kcal/mol]
Nc1ncnc2c(CN3CC(O)C(CSCCOCCO)C3)c[nH]c12 (stereo not drawn) [2-(2-hydroxyethoxy)ethylthio-DADMe-ImmA]	-15.4 ± 0.1	0	
Nc1ncnc2c(CN3CC(O)C(CSCCO)C3)c[nH]c12 (stereo not drawn) [2-Hydroxyethylthio-DADMe-ImmA]	-14.9 ± 0.1	0.5	
Nc1ncnc2c(CN3CC(O)C(CSCCCO)C3)c[nH]c12 (stereo not drawn) [3-Hydroxypropylthio-DADMe-ImmA]	-15.2 ± 0.2	0.2	
Nc1ncnc2c(CN3CC(O)C(CSCCCCO)C3)c[nH]c12 (stereo not drawn) [4-Hydroxybutylthio-DADMe-ImmA]	-14.8 ± 0.1	0.6	
CCCCSC[C@H]1CN(Cc2c[nH]c3c(N)ncnc23)C[C@@H]1O [Butylthio-DADMe-ImmA, reference compound]	-16.1 ± 0.2	-0.7	
Nc1ncnc2c(CN3C[C@H](CSCC[C@H](N)C(=O)O)[C@@H](O)C3)c[nH]c12 [Homocysteine-DADMe-ImmA, reference compound]	-13.9 ± 0.1	1.5	1.5 to 2.2
CSC[C@H]1CN(Cc2c[nH]c3c(N)ncnc23)C[C@@H]1O [Methylthio-DADMe-ImmA, reference compound]	-15.4 ± 0.1	0	
